Patent US20210116454A1, “METHODS FOR TREATING A HEMATOLOGICAL CANCER AND THE USE OF COMPANION BIOMARKERS FOR 2-(2,6-DIOXOPIPERIDIN-3-YL)-4-((2-FLUORO-4-((3-MORPHOLINOAZETIDIN-1-YL)METHYL)BENZYL)AMINO)ISOINDOLINE-1,3-DIONE” (CELGENE CORPORATION, priority 2019, published 2021)

Legend:
Assay type in all cases: cell-based
SU-DHL-6 = assay: 5-day viable cell number and apoptosis (7-AAD exclusion/Annexin V flow cytometry); conditions: SU-DHL-6 cells, 5 days
Procedure, shortened: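 Viable cell number and Annexin V/7-AAD apoptosis were read by flow cytometry following a five-day treatment with increasing doses.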

Farage CRBN^WT cells = assay: Cell proliferation in CRBN^WT (CAS9 control) cells, 5 days; conditions: 120 h
Excerpt: (§1) The activated B-cell (ABC) and MYC/BCL2 double expressor cell lines SU-DHL-2 and RIVA, the germinal center B-cell (GCB) and MYC/BCL2 double hit cell lines (and expressing BCL6) Karpas-422, SU-DHL-10, WSU-DLCL2, and the primary mediastinal B-cell lymphoma (PMBL) cell line Farage were infected with a CAS9 expressing lentivirus construct to generate the control CAS9 expressing cells. The Cas9 cells had wild type cereblon expression (CRBN^WT).
(§2) To generate the cereblon knock out cells (CRBN^−/−), the individual control CAS9 cells were infected with a construct expressing a subgenomic single guide RNA (sgRNA). Western blot analysis confirmed the absence of cereblon protein in the CRBN^−/− cells, relative to the levels of the housekeeping protein β-tubulin. The CRBN^WT and CRBN^−/− cells were treated with increasing concentrations of Compound 1 for five days.

Karpas-422 CRBN^WT cells = assay: as above; conditions: Homo sapiens, 120 h
Excerpt: as §1, §2

[1] = test system: bone marrow CD34+ cells from healthy donors; assay: Ex vivo maturation of myeloid progenitors to neutrophils (flow cytometry)
Experimental: The effects of Compound 1 on maturation of myeloid progenitors to neutrophils were assessed in ex vivo cultures of bone marrow CD34+ cells from healthy donors and different dosing schedules were evaluated to gain insight into the schedule dependence of these events.
Myeloid differentiation was induced by adding stem cell factor (SCF), FMS-related tyrosine kinase 3 ligand (FLT3-L), and granulocyte colony stimulating factor (G-CSF) to culture media. Cell differentiation in the presence or absence of Compound 1 was evaluated at prespecified time points by flow cytometry as the percentage of cells in 5 subpopulations: (1) hematopoietic stem cells (HSC, CD34+/CD33−/CD11b−); (2) Stage I cells (CD34+/CD33+/CD11b−); (3) Stage II cells (CD34−/CD33+/CD11b−); (4) Stage III cells (CD34−/CD33+/CD11b+) and (5) Stage IV cells (CD34−/CD33−/CD11b+) cells (from immature to mature). Differentiation and viability were monitored during the complete assay every two or three days.
However, the viability of neutrophil precursors exposed to Compound 1 was not affected (FIG. 18).
Recovery of mature neutrophils after Compound 1 exposure was also evaluated in the system.

11 DLBCL cell lines = assay: Integrated proteomics (TMT-MS) and RNA-Seq profiling; conditions: 0.04 μM; 12, 24 and 48 hours
Experimental: Biomarkers associated with the cytotoxic effects of Compound 1 treatment in DLBCL, such as signaling and regulatory pathways, were determined by integrative network analysis using transcriptomic and proteomic profiling. The approach consisted of a network flow optimization using a knowledge driven backbone network with protein interactions and regulatory associations similar to what was described previously (Basha, Mauer, Simonovsky, Shpringer, & Yeger-Lotem, 2019; Gosline, Spencer, Ursu, & Fraenkel, 2012).
Briefly, differential expression analysis and differential protein abundance analysis at different timepoints were integrated using a model framework. […]
To begin, cell line sensitivity to Compound 1 was determined by flow cytometry for 40 cell line models using DRAQ7 and Annexin V staining to quantify the reduction in proliferation and induction of apoptosis after five days of compound treatment. […] Sensitivity was calculated by calculating the ratio of (AUCapoptosis/AUClive cells), where smaller ratios indicated resistance, and larger ratios indicated sensitivity. […]

O=C1CC[C@H](N2C(=O)c3cccc(NCc4ccc(CN5CC(N6CCOCC6)C5)cc4F)c3C2=O)C(=O)N1 [Compound 1, (S)-2-(2,6-dioxopiperidin-3-yl)-4-((2-fluoro-4-((3-morpholinoazetidin-1-yl)methyl)benzyl)amino)isoindoline-1,3-dione]
EC50 (SU-DHL-6; Homo sapiens, 120 h): 452 nM | Emax (SU-DHL-6; Homo sapiens, 120 h): 46.3% | IC50 (SU-DHL-6; Homo sapiens, 120 h): 260 nM | % Viable Cells AUC (SU-DHL-6): 88.38 | % Viable Cells Emax (SU-DHL-6): 5.843% | % Viable Cells Sensitivity (SU-DHL-6): High (highly sensitive to Compound 1 with less than 6% viable cells remaining (Emax) after treatment) | Apoptosis AUC (SU-DHL-6): 421.1 | Apoptosis Sensitivity (SU-DHL-6): High | Emax (Farage CRBN^WT cells): 0.5% | IC50 (Farage CRBN^WT cells): 8 nM | Emax (Karpas-422 CRBN^WT cells): 5% | IC50 (Karpas-422 CRBN^WT cells): 15 nM | late-stage maturation of neutrophil progenitors ([1]; 14 or 5 days of exposure): blocked | Number of Days in Washout Period Required for Recovery to 50% of Stage IV Cells ([1]; 5 days treatment, 0.1 nM): 0 days | Number of Days in Washout Period Required for Recovery to 50% of Stage IV Cells ([1]; 5 days treatment, 1 nM): 1 days | Number of Days in Washout Period Required for Recovery to 50% of Stage IV Cells ([1]; 5 days treatment, 10 nM): 1 days | Number of Days in Washout Period Required for Recovery to 50% of Stage IV Cells ([1]; 5 days treatment, 1000 nM): 5 days | Number of Days in Washout Period Required for Recovery to 50% of Stage IV Cells ([1]; 14 days treatment, 0.1 nM): 0 days | Number of Days in Washout Period Required for Recovery to 50% of Stage IV Cells ([1]; 14 days treatment, 1 nM): 0 days | Number of Days in Washout Period Required for Recovery to 50% of Stage IV Cells ([1]; 14 days treatment, 100 nM): 4 days | Number of Days in Washout Period Required for Recovery to 50% of Stage IV Cells ([1]; 14 days treatment, 1000 nM): 4 days | viability of neutrophil precursors ([1]; Annexin V and 7-AAD, 14 or 5 days exposure): not affected | recovery of the proportion of mature neutrophils (Stage IV cells) from its nadir ([1]; after 1 week without Compound 1): ≥ 50% | recovery of Stage IV cells relative to Stage IV cell population in the DMSO control ([1]; one week without drug, all tested conditions): at least 50% | genes associated with cell cycle and transcription (11 DLBCL cell lines): global down-regulation | genes associated with interferon signaling, cytokine/chemokine signaling, apoptosis, cell adhesion, cell-cell junction, GPCRs, extracellular matrix (11 DLBCL cell lines): up-regulation
